Patent EP1247803A2, “Indolinone compounds suitable for modulation of protein kinases” (Sugen, Inc., priority 1996, dated 1998)

How the values were obtained:
PDGF-R = PDGF-R (Homo sapiens, UniProt P09619); test: PDGF-R ELISA; assay type: cell-based
Source text: A PDGF-R ELISA is described in International Patent Publication No. WO 96/40116, published December 19, 1996 by Tang et al.

MET = MET biochemical kinase assay; set-up: species or system human; concentration or dose not given beside the values
In short: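 Lysate-derived MET, or chimeric receptors, is immobilised on plates through an antibody to the human MET cytoplasmic region. Compounds are added along with kinase buffer supplying ATP and divalent metal ions, and receptor autophosphorylation is quantified by anti-phosphotyrosine ELISA.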

EGFR = target: T1, EGFR (Homo sapiens, UniProt P00533); test: EGFR ELISA assay (in vitro kinase activity, EGFR captured from A431 cell lysate); assay type: biochemical; set-up: concentration or dose not given beside the values
T1 construct: Add 7 ug A431 cell lysate per well (EGFR source); endogenous in cells; host or cells: A431
T1 sequence (P00533 25-1210): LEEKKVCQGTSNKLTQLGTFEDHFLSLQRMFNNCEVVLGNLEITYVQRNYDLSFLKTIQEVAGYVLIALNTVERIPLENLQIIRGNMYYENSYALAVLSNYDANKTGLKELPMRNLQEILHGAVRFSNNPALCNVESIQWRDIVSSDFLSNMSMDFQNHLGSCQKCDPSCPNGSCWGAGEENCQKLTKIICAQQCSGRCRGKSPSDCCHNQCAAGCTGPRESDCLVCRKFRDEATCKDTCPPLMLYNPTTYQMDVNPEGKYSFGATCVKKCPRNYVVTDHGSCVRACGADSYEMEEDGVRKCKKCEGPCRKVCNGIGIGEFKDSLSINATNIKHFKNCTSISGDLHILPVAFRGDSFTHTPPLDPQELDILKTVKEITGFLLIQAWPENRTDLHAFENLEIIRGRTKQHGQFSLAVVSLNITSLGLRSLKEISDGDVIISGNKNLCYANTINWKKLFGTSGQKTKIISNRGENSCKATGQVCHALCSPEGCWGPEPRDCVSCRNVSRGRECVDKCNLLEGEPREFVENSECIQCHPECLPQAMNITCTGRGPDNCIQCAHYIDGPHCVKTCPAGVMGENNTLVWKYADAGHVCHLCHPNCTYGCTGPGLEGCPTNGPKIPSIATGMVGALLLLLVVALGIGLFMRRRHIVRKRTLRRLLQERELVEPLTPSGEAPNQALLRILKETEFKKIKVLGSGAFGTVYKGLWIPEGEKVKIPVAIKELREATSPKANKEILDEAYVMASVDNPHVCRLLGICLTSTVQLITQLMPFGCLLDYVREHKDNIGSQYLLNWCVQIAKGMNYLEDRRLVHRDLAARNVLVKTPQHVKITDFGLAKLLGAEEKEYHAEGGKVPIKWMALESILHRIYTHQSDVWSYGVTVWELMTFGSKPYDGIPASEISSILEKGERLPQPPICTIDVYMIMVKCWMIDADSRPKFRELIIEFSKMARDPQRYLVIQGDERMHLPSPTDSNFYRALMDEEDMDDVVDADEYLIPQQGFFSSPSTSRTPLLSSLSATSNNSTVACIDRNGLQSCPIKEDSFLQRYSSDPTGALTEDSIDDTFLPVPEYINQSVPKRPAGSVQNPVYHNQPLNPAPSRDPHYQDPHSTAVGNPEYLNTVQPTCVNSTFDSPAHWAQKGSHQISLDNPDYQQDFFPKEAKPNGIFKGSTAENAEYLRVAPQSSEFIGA
In short: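 Receptor autophosphorylation was read by ELISA: anti-phosphotyrosine serum and an HRP-linked secondary with ABTS substrate, absorbance at 410 nm (reference 630 nm). The reaction ran 5 min with 3 µM ATP and 5 mM MnCl2 and was quenched by 20 mM EDTA. Compounds were first incubated 30 min with antibody-captured EGFR from A431 cell lysate.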

Chain of PDGF-R (P09619 33-1106, species assumed): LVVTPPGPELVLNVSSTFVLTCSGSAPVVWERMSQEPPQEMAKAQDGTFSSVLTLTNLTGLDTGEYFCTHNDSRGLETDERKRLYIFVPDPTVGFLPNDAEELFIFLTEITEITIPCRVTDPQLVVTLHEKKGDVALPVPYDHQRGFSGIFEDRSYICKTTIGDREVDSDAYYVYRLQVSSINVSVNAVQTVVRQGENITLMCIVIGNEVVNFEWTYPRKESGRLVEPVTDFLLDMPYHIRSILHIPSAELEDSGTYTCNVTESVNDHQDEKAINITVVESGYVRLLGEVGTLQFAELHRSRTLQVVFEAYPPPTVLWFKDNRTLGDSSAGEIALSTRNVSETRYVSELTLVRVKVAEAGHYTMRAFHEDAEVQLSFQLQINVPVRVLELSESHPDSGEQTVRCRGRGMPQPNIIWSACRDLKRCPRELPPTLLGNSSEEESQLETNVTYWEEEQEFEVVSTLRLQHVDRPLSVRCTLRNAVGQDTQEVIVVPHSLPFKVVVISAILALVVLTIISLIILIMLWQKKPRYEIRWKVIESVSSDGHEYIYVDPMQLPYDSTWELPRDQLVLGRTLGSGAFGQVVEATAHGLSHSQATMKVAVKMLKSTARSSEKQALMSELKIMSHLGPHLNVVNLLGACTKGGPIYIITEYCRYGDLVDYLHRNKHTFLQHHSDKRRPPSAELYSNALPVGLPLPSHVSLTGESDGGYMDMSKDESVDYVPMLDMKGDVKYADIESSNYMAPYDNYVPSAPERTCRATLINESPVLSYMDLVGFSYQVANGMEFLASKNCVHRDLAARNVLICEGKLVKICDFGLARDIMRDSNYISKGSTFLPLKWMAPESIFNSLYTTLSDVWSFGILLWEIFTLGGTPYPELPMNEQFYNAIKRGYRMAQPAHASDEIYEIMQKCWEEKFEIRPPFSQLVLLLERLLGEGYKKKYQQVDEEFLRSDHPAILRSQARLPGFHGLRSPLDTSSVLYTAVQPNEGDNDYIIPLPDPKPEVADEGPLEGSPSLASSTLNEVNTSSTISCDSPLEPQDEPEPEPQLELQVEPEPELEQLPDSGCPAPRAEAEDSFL

Structure (SMILES)	PDGF Kinase %Inhibition (PDGF-R)	Met Kinase % Inhibition (MET)	Biochem EGFR %Inhibition (EGFR)
CC(C)c1cc(C=C2C(=O)Nc3ccc(CCCl)cc32)cc(C(C)C)c1Oc1ccccc1 [10732/G04]	25.0%	24.9%	8.0%
COc1ccc(C=C2C(=O)Nc3ccc(CCCl)cc32)cc1C(C)(C)C [10732/G05]	15.4%	15.2%	3.8%
CC(C)(C)c1cc(C=C2C(=O)Nc3ccc(CCCl)cc32)ccc1OCc1ccccc1 [10732/G06]	0.2%	16.2%	-12.1%
COc1c(Br)cc(C=C2C(=O)Nc3ccc(CCCl)cc32)cc1C(C)(C)C [10732/G07]	21.4%	23.9%	-21.9%
CC(C)(C)c1cc(C=C2C(=O)Nc3ccc(CCCl)cc32)cc(Br)c1OCc1ccccc1 [10732/G08]	37.6%	44.7%	-20.4%
COc1c(Cl)cc(C=C2C(=O)Nc3ccc(CCCl)cc32)cc1C(C)(C)C [10732/G09]	9.8%	33.9%	-34.8%
CC(C)(C)c1cc(C=C2C(=O)Nc3ccc(CCCl)cc32)cc(Cl)c1OCc1ccccc1 [10732/G10]	20.4%	45.7%	-38.2%
COc1c(I)cc(C=C2C(=O)Nc3ccc(CCCl)cc32)cc1C(C)(C)C [10732/G11]	38.6%	63.0%	-33.7%
CC(C)(C)c1cc(C=C2C(=O)Nc3c(Br)cc(Br)cc32)cc(I)c1OCc1ccccc1 [10733/A02]	11.5%	74.6%	25.9%
COc1c([N+](=O)[O-])cc(C=C2C(=O)Nc3c(Br)cc(Br)cc32)cc1C(C)(C)C [10733/A03]	23.2%	24.9%	33.6%
COc1c(C(C)(C)C)cc(C=C2C(=O)Nc3c(Br)cc(Br)cc32)cc1C(C)(C)C [10733/A04]	-14.1%	24.0%	32.8%
CC(C)(C)c1cc(C=C2C(=O)Nc3c(Br)cc(Br)cc32)cc(C(C)(C)C)c1OCc1ccccc1 [10733/A05]	-4.0%	18.2%	55.2%
COc1c(C)cc(C=C2C(=O)Nc3c(Br)cc(Br)cc32)cc1C [10733/A06]	-24.3%	33.7%	45.1%
Cc1cc(C=C2C(=O)Nc3c(Br)cc(Br)cc32)cc(C)c1OCc1ccccc1 [10733/A07]	-12.9%	27.2%	28.5%
COc1cc(Br)cc(C=C2C(=O)Nc3c(Br)cc(Br)cc32)c1O [10733/A08]	-10.1%	27.2%	19.5%
O=C1Nc2c(Br)cc(Br)cc2C1=Cc1cc(Br)ccc1O [10733/A09]	-7.6%	22.1%	25.9%
O=C1Nc2c(Br)cc(Br)cc2C1=Cc1cc([N+](=O)[O-])ccc1O [10733/A10]	-13.3%	21.1%	14.2%
COc1c(O)ccc(C=C2C(=O)Nc3c(Br)cc(Br)cc32)c1[N+](=O)[O-] [10733/A11]	4.2%	43.5%	23.0%
CC(C)(C)c1cc(C=C2C(=O)Nc3ccc(I)cc32)cc(I)c1OCc1ccccc1 [10733/B02]	14.7%	74.6%	31.6%
COc1c([N+](=O)[O-])cc(C=C2C(=O)Nc3ccc(I)cc32)cc1C(C)(C)C [10733/B03]	35.8%	62.2%	14.4%
COc1c(C(C)(C)C)cc(C=C2C(=O)Nc3ccc(I)cc32)cc1C(C)(C)C [10733/B04]	24.9%	56.3%	28.5%
CC(C)(C)c1cc(C=C2C(=O)Nc3ccc(I)cc32)cc(C(C)(C)C)c1OCc1ccccc1 [10733/B05]	27.3%	61.3%	26.7%
COc1c(C)cc(C=C2C(=O)Nc3ccc(I)cc32)cc1C [10733/B06]	-9.2%	71.4%	43.6%

Structure (SMILES)	PDGF Kinase %Inhibition (PDGF-R)	Met Kinase % Inhibition (MET)	Biochem EGFR %Inhibition (EGFR)
Cc1cc(C=C2C(=O)Nc3ccc(I)cc32)cc(C)c1OCc1ccccc1 [10733/B07]	4.2%	73.5%	32.7%
COc1cc(Br)cc(C=C2C(=O)Nc3ccc(I)cc32)c1O [10733/B08]	-15.7%	65.5%	32.5%
O=C1Nc2ccc(I)cc2C1=Cc1cc(Br)ccc1O [10733/B09]	7.0%	64.5%	21.1%
O=C1Nc2ccc(I)cc2C1=Cc1cc([N+](=O)[O-])ccc1O [10733/B10]	-59.6%	65.1%	11.8%
COc1c(O)ccc(C=C2C(=O)Nc3ccc(I)cc32)c1[N+](=O)[O-] [10733/B11]	23.7%	36.6%	12.5%
Cc1c(Br)ccc2c1C(=Cc1cc(I)c(OCc3ccccc3)c(C(C)(C)C)c1)C(=O)N2 [10733/C02]	15.1%	71.8%	31.6%
COc1c([N+](=O)[O-])cc(C=C2C(=O)Nc3ccc(Br)c(C)c32)cc1C(C)(C)C [10733/C03]	28.1%	29.3%	14.4%
COc1c(C(C)(C)C)cc(C=C2C(=O)Nc3ccc(Br)c(C)c32)cc1C(C)(C)C [10733/C04]	19.2%	18.4%	29.0%
Cc1c(Br)ccc2c1C(=Cc1cc(C(C)(C)C)c(OCc3ccccc3)c(C(C)(C)C)c1)C(=O)N2 [10733/C05]	11.1%	23.2%	17.2%
COc1c(C)cc(C=C2C(=O)Nc3ccc(Br)c(C)c32)cc1C [10733/C06]	20.0%	4.1%	22.7%
Cc1cc(C=C2C(=O)Nc3ccc(Br)c(C)c32)cc(C)c1OCc1ccccc1 [10733/C07]	4.6%	10.2%	16.7%
COc1cc(Br)cc(C=C2C(=O)Nc3ccc(Br)c(C)c32)c1O [10733/C08]	-3.6%	85.7%	65.8%
Cc1c(Br)ccc2c1C(=Cc1cc(Br)ccc1O)C(=O)N2 [10733/C09]	91.9%	16.3%	46.0%
Cc1c(Br)ccc2c1C(=Cc1cc([N+](=O)[O-])ccc1O)C(=O)N2 [10733/C10]	-6.4%	20.5%	36.0%
COc1c(O)ccc(C=C2C(=O)Nc3ccc(Br)c(C)c32)c1[N+](=O)[O-] [10733/C11]	62.2%	35.1%	15.8%
CNS(=O)(=O)c1ccc2c(c1)C(=Cc1cc(I)c(OCc3ccccc3)c(C(C)(C)C)c1)C(=O)N2 [10733/D02]	17.6%	63.4%	12.5%
CNS(=O)(=O)c1ccc2c(c1)C(=Cc1cc([N+](=O)[O-])c(OC)c(C(C)(C)C)c1)C(=O)N2 [10733/D03]	40.7%	32.8%	11.2%
CNS(=O)(=O)c1ccc2c(c1)C(=Cc1cc(C(C)(C)C)c(OC)c(C(C)(C)C)c1)C(=O)N2 [10733/D04]	26.5%	37.7%	19.9%
CNS(=O)(=O)c1ccc2c(c1)C(=Cc1cc(C(C)(C)C)c(OCc3ccccc3)c(C(C)(C)C)c1)C(=O)N2 [10733/D05]	16.8%	25.1%	10.6%
CNS(=O)(=O)c1ccc2c(c1)C(=Cc1cc(C)c(OC)c(C)c1)C(=O)N2 [10733/D06]	1.3%	-19.4%	30.8%
CNS(=O)(=O)c1ccc2c(c1)C(=Cc1cc(C)c(OCc3ccccc3)c(C)c1)C(=O)N2 [10733/D07]	0.9%	-6.8%	37.4%
CNS(=O)(=O)c1ccc2c(c1)C(=Cc1cc(Br)cc(OC)c1O)C(=O)N2 [10733/D08]	42.3%	80.0%	38.3%
CNS(=O)(=O)c1ccc2c(c1)C(=Cc1cc(Br)ccc1O)C(=O)N2 [10733/D09]	33.8%	38.7%	48.3%
